Source: paper PMC10989504 (RSC Chemical Biology, 2024)

What was measured:
papain = target: T1, papain (Carica papaya, UniProt P00784); assay: Papain inhibition; format: biochemical; conditions: TD19 at 10 μM; E64 and IAA positive controls
T1 sequence (P00784 134-345): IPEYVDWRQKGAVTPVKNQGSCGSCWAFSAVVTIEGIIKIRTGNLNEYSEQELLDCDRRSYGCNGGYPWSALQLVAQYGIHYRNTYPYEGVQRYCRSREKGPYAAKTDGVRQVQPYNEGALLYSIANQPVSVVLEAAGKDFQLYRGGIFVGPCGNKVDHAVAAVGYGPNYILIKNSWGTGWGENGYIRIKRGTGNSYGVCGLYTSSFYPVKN

AML and GBM cells = assay: Viability of AML and GBM cells, control compound; conditions: 72 h, MTT/CCK8, in words
ALKBH5 [1] = target: T2, ALKBH5 (Homo sapiens, UniProt Q6P6C2); assay: PAGE-based demethylation assay, ALKBH5; format: biochemical; conditions: compound at 50 μM
FTO = FTO (Homo sapiens, UniProt Q9C0B1); assay: PAGE-based demethylation assay, FTO; format: biochemical; conditions: compound at 50 μM
ALKBH5 [2] = target: T2, ALKBH5; assay: FRET-based m6A detection assay, ALKBH5; conditions: preincubation for various durations, in words
ALKBH5 C100SC267S = ALKBH5 C100SC267S (human, UniProt Q6P6C2 66-292, C100S;C267S); assay: pull-down
ALKBH5 C100SC267S, sequence (Q6P6C2 66-292 C100S/C267S): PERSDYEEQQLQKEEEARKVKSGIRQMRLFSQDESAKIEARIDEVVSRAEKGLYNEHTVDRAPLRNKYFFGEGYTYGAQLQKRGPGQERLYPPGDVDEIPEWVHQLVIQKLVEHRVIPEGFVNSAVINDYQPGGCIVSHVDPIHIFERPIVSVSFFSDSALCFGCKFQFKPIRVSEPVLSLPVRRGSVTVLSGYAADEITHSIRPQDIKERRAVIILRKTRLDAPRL

T2 sequence (Q6P6C2 66-292 limits assumed): as the sequence (Q6P6C2 66-292 C100S/C267S) above, with S35C, S202C counted along it
FTO, sequence (Q9C0B1 32-505 limits assumed): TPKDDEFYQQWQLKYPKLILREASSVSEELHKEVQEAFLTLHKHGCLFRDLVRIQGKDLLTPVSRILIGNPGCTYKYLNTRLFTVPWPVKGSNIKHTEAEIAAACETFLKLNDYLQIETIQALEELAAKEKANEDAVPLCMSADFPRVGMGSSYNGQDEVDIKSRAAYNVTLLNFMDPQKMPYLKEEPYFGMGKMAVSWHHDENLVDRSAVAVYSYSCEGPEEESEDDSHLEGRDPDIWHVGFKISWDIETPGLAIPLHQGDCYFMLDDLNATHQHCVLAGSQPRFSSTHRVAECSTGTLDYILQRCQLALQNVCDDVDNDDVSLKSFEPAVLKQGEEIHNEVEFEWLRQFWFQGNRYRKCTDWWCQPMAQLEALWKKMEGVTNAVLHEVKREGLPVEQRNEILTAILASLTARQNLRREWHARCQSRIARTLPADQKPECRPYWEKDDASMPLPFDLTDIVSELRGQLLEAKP

Molecule	Inhibition of papain (papain)	Inhibition of ALKBH5 demethylation of dm6A-modified substrate (ALKBH5 [1])	other results
CC(C)C[C@H](NC(=O)[C@H]1O[C@@H]1C(=O)O)C(=O)NCCCCN=C(N)N (relative stereo) [E64, L-trans-epoxysuccinyl-leucylamido(4-guanidino)butane]	significant inhibition	–	–
Cc1noc(C)c1-c1cc(Cl)c(Nc2ccccc2C(=O)NO)c(Cl)c1 [FB23-2]	–	–	Antiproliferative activity compared with TD19 (AML and GBM cells): displayed better activities than TD19
NC(=O)CI [IAA, iodoacetamide]	significant inhibition	did not inhibit	Inhibition of FTO demethylation of dm6A-modified substrate (FTO): did not inhibit
CCN1C(=O)C=CC1=O [NEM, N-ethylmaleimide]	–	inhibited the demethylation	–
O=C(O)c1cc(O)c2c(c1)C(=O)c1cccc(O)c1C2=O [rhein]	–	–	Time dependence and reversibility of ALKBH5 inhibition (ALKBH5 [2]): time-independent and reversible
TTTTTTGGACT (ssDNA, N6-methyl-deoxyadenosine at position 9) [5'-biotin-TEG dm6A DNA]	–	–	binding result (ALKBH5 C100SC267S): binds
